Measurements reported in US6437127B1, “Substituted cycloalkenes and their use as microbices, especially as fungicides” (Bayer Aktiengesellschaft, priority 1995, dated 2002).

Experiments:
[1] = test system: Erysiphe graminis. f. sp. tritici; assay: Erysiphe test (wheat)/curative; assay type: in vivo; conditions: curative, sprayed 48 hours after inoculation, application rate 250 g/ha, evaluation 7 days after inoculation
Description: Erysiphe Test (Wheat)/Curative Solvent: 10 parts by weight of N-methyl-pyrrolidone Emulsifier: 0.6 parts by weight of alkylaryl polyglycol ether To produce a suitable preparation of active compound, 1 part by weight of active compound is mixed with the stated amounts of solvent and emulsifier, and the concentrate is diluted with water to the desired concentration. To test for curative activity, young plants are dusted with spores of Erysiphe graminis. f. sp. tritici. 48 hours after the inoculation, the plants are sprayed with the preparation of active compound at the stated application rate. The plants are placed in a greenhouse at a temperature of about 20° C. and a relative atmospheric humidity of about 80%, in order to promote the development of mildew […]. Evaluation is carried out 7 days after the inoculation.

[2] = test system: Pseudocercosporella herpotrichoides; assay: Pseudocercosporella herpotrichoides test (wheat)/protective; assay type: in vivo; conditions: protective, application rate 250 g/ha, evaluation 21 days after inoculation
Description: Pseudocercosporella Herpotrichoides Test (Wheat)/Protective Solvent: 10 parts by weight of N-methyl-pyrrolidone Emulsifier: 0.6 parts by weight of alkylaryl polyglycol ether To produce a suitable preparation of active compound, 1 part by weight of active compound is mixed with the stated amounts of solvent and emulsifier, and the concentrate is diluted with water to the desired concentration. To test for protective activity, young plants are sprayed with the preparation of active compound at the stated application rate. After the spray coating has dried on, the stem bases of the plants are inoculated with spores of Pseudocercosporella herpotrichoides. The plants are placed in a greenhouse at a temperature of about 10° C. and a relative atmospheric humidity of about 80%. Evaluation is carried out 21 days after the inoculation.

melting point: 135 to 140 °C
Structure (SMILES): CNC(=O)C(=NOC)C1=C(/C=C/c2ccccc2)CCC1 [compound (1)]
efficacy [1]: 75% | efficacy [2]: 90%
